Earlier results on 6 molecules are cited in patent US5648564A, “Process for the formation, isolation and purification of comestible xanthophyll crystals from plants” (Kemin Industries, Inc., priority 1995, dated 1997).

The structures appear in SMILES notation.

One data set concerns rat. Particulars: oral.
Consider `CC(O)CO` (stereo not drawn) [Propylene Glycol, 1,2-propanediol], for which the LD50 was 25 mL/kg.
`c1ccncc1` [Pyridine]: the LD50 is 1.58 mL/kg.
Take `ClC(Cl)Cl` [Chloroform]: the LD50 was 2.18 mL/kg.
As to `CCOC(C)=O` [Ethyl Acetate], the LD50 was 11.3 mL/kg.

System in a further data set: not given
The note with it: consumption of lutein and zeaxanthin (reported jointly).
Take `CC1=C[C@H](O)CC(C)(C)[C@H]1/C=C/C(C)=C/C=C/C(C)=C/C=C/C=C(C)/C=C/C=C(C)/C=C/C1=C(C)C[C@@H](O)CC1(C)C` [lutein]: the “reduction in age-related macular degeneration” value is 40%.
On to `CC1=C(/C=C/C(C)=C/C=C/C(C)=C/C=C/C=C(C)/C=C/C=C(C)/C=C/C2=C(C)C[C@@H](O)CC2(C)C)C(C)(C)C[C@H](O)C1` [zeaxanthin], for which the “reduction in age-related macular degeneration” value is 40%.
